ChEMBL document CHEMBL1221225, “A small molecule that directs differentiation of human ESCs into the pancreatic lineage” (Nat Chem Biol, 2009)

How the values were obtained:
Type in all cases: cell-based
[1] = Activation of PKC signaling in human HUES8 definitive endoderm cells assessed as increase in Pdx1-expressing cells at 500 nM after 4 days by immunocytochemistry (reference value: 2.8+/-0.6%)
[2] = Activation of PKC signaling in human HUES8 cells assessed as increase in Pdx1-expressing cells at 500 nM after 4 days by immunocytochemistry pregrown in medium with Wnt3a, activin A, FGF10, KAAD-cyclopamine and retinoic acid relative to ILV treated cells
[3] = Activation of PKC signaling in human HUES8 cells assessed as increase in Pdx1-expressing cells at 14 nM after 4 days by immunocytochemistry pregrown in medium with Wnt3a, activin A, FGF10, KAAD-cyclopamine and retinoic acid relative to ILV treated cells
[4] = Activation of PKC signaling in human HUES8 definitive endoderm cells assessed as increase in Pdx1-expressing cells at 14 nM after 4 days by immunocytochemistry (reference value: 2.8+/-0.6%)

SMILES	inhibition [1] [%]	inhibition [2] [%]	inhibition [3] [%]	inhibition [4] [%]
CC(C)[C@H]1C(=O)N[C@H](CO)Cc2cc(NC(=O)/C=C/C=C/c3ccc(C(F)(F)F)cc3)ccc2N1C	12.2	15.4		
CCCCCCCCCCCCCC(=O)O[C@@H]1[C@@H](C)[C@@]2(O)[C@@H](C=C(CO)C[C@]3(O)C(=O)C(C)=C[C@@H]23)[C@@H]2C(C)(C)[C@]12OC(C)=O			21.3	18.3
